Laboratory results: US10392368B2, “Pyrazolo and triazolo bicyclic compounds as JAK kinase inhibitors” (THERAVANCE BIOPHARMA R&D IP, LLC, priority 2017, dated 2019)

Columns and labels:
JAK1 = target: T1, JAK1 (Homo sapiens, UniProt P23458); assay: Biochemical JAK1 kinase assay (LanthaScreen); details: for Ki: read-out: JAK 1 (pKi) (converted)
T1 construct: GST; purchased Life Technologies
Summary of the method: (§1)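 Values are pKi, calculated by Cheng-Prusoff from IC50 obtained by robust 4-parameter fitting of percent inhibition. The kinase reaction used GFP-STAT1 peptide in HEPES pH 7.5 buffer with MgCl2, EGTA and Brij-35, ATP-initiated after compound pre-incubation, 1 h at ambient temperature.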

JAK2 = target: T2, JAK2 (Homo sapiens, UniProt O60674); assay: Biochemical JAK2 kinase assay (LanthaScreen); details: for Ki: read-out: JAK 2 (pKi) (converted)
T2 construct: GST; purchased Life Technologies
T2 sequence (O60674 whole entry): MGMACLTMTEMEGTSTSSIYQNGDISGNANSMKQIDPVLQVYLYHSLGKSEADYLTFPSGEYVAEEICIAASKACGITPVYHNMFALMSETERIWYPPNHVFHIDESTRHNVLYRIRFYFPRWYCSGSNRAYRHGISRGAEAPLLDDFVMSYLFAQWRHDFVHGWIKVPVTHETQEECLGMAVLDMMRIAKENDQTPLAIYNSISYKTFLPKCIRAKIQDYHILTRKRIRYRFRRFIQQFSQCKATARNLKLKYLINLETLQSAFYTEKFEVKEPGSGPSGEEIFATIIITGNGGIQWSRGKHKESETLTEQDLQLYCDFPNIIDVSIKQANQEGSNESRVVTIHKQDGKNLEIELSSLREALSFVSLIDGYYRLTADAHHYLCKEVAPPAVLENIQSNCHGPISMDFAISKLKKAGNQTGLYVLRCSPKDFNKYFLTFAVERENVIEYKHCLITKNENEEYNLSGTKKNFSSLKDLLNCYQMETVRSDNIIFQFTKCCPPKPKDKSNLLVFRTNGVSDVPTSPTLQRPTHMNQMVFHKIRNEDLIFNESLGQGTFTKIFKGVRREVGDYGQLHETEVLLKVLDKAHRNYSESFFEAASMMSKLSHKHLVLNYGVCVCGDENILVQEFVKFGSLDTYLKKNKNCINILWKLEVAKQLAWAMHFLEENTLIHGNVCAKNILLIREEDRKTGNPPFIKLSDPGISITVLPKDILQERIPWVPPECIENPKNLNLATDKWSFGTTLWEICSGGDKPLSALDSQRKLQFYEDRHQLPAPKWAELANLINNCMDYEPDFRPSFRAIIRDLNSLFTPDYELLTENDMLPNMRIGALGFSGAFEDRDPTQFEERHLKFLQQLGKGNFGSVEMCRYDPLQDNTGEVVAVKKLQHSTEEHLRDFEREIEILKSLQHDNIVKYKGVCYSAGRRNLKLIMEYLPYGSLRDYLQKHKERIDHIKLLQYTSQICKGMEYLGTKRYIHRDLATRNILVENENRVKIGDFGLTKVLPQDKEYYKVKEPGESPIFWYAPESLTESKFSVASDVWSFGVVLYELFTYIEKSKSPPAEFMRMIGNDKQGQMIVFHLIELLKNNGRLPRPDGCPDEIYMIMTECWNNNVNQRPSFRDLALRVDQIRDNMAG
Summary of the method: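 pKi values derive from pIC50 via Cheng-Prusoff, with IC50 from a 4-parameter fit of percent-inhibition TR-FRET data using Tb-anti-pSTAT1 (pTyr701) detection. Compound, GST-JAK2 and GFP-STAT1 substrate were pre-incubated 1 h, then ATP started a 1 h ambient reaction (HEPES pH 7.5, 10 mM MgCl2, 1% DMSO).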

Tyk2 = target: T3, Tyk2 (Homo sapiens, UniProt P29597); assay: Biochemical Tyk2 kinase assay (LanthaScreen); details: for Ki: read-out: Tyk 2 (pKi) (converted)
T3 construct: GST; purchased Life Technologies
T3 sequence (P29597 whole entry): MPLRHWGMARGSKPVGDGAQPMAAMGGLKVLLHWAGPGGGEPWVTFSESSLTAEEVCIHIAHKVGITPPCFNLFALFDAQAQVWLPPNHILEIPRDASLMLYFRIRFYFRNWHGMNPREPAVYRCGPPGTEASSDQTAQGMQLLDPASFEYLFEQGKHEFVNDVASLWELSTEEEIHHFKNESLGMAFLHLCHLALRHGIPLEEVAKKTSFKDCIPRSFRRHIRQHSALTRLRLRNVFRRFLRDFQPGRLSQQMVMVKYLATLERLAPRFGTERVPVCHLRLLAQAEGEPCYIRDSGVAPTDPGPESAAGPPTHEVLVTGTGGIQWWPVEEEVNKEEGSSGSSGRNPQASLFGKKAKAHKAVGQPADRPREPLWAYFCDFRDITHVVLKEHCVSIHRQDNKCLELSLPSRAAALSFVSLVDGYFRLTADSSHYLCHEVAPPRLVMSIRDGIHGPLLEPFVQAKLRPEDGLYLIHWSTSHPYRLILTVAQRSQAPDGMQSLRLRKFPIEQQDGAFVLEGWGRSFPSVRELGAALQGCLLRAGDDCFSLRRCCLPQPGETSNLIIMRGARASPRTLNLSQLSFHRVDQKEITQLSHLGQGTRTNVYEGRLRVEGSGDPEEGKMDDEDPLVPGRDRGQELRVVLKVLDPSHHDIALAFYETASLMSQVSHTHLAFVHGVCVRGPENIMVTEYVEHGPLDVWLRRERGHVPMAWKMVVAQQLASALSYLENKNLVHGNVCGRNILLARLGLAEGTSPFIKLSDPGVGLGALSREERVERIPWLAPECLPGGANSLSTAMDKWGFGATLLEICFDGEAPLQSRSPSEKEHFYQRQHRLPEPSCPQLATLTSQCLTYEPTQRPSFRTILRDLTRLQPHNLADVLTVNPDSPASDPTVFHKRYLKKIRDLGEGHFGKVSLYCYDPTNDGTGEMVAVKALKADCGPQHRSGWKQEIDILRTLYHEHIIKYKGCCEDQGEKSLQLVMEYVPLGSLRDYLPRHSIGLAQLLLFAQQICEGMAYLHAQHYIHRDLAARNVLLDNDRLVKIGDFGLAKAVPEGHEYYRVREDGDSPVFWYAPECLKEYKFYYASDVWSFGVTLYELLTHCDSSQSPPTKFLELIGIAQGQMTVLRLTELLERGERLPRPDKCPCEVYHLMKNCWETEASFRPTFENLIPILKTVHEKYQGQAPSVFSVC
Summary of the method: as §1

[1] = test system: IL-2 stimulated pSTAT5 in Tall-1 T cells; assay: Cellular JAK3 potency assay: inhibition of IL-2 stimulated pSTAT5 in Tall-1 T cells; assay type: cell-based, human; details: for IC50: Homo sapiens, TALL-1, IL-2 stimulated pSTAT5 in Tall-1 T cells, read-out: Tall-1 (pIC50) (converted)
Summary of the method: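 Tall-1 human T cells were preincubated with compound for 1 h at 37° C, then stimulated with IL-2 (300 ng/ml final) for 30 min. STAT5 phosphorylation in lysates was read by AlphaLisa bead emission, and IC50 from inhibition curves is given as pIC50 (mean±SD).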

[2] = test system: oxazolone-induced colitis; assay: Mouse model of oxazolone-induced colitis; assay type: in vivo
Description: Oxazolone-induced colitis is an experimental model that has a histological resemblance to human ulcerative colitis (Heller et al. Immunology, 2002, 17, 629-638). Adult BALB/C mice from Harlan were used in the assay. On day 1, animals were lightly anesthetized with isoflurane and the hairs between the shoulder were carefully removed before oxazolone (4%, 150 μL, 4:1 acetone:olive oil formulation) or vehicle solution was slowly applied for skin sensitization. Seven days after skin sensitization, the mice were fasted around 6 hours prior, anesthetized with ketamine/xylazine injection, and a 1 mL syringe equipped with a 3.5-F catheter, filled with oxazolone solution, was inserted carefully about 4 cm into the colon of the mouse. Following insertion, 50 μL of the oxazolone solution (0.8% in 1:1 ethanol:water formulation) was injected very slowly (over 30 sec using an injection pump) into the colon. Drug treatment (PO, QD or BID or TID) or vehicle was initiated a day prior to the oxazolone intrarectal (IR) challenge. Two-day post oxazolone intrarectal challenge, the disease was assessed by treatment-blinded experimenters for each mouse according to the criteria score: stool consistency score (0, normal; 2, loose; 4, diarrhea), gross bleeding score (0, absence; 2, blood tinged; 4, presence); Combined stool score endpoint=stool consistency score+stool blood score.
Select compounds were tested in the assay.

JAK3 = target: T4, JAK3 (Homo sapiens, UniProt P52333); assay: Biochemical JAK3 kinase assay (LanthaScreen); design: GST; purchased Life Technologies; details: for Ki: read-out: JAK 3 (pKi) (converted)
T4 sequence (P52333 1-1124): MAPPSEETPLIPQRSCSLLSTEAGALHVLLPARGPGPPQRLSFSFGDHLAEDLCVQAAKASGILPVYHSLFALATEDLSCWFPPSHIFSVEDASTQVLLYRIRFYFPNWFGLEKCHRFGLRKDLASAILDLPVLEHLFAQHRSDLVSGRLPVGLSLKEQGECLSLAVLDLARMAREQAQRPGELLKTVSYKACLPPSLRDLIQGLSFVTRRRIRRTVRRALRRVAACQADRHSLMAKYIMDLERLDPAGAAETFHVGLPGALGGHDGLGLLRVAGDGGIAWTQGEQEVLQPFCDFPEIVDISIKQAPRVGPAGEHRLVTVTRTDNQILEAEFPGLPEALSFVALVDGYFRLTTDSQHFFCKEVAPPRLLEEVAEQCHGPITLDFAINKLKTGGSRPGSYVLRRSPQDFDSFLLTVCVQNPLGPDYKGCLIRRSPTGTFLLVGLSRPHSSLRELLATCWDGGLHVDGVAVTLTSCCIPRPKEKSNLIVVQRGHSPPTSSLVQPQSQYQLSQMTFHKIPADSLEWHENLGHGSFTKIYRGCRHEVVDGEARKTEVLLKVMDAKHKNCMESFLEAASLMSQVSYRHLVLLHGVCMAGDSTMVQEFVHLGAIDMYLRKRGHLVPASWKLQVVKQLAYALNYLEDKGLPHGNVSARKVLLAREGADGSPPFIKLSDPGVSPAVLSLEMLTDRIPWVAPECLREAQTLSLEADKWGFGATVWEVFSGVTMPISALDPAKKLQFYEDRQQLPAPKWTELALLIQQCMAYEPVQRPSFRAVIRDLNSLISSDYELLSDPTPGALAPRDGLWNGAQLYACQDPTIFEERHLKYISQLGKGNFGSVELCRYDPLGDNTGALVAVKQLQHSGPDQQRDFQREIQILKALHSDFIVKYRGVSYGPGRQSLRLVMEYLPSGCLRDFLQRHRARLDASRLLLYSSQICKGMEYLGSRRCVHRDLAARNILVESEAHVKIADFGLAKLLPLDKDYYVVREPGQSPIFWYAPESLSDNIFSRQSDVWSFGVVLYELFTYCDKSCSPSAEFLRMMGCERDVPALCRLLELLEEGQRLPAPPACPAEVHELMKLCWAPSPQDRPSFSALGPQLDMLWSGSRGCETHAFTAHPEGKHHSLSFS
Summary of the method: as §1

[3] = IL-2 stimulated pSTAT5 in Tall-1 T cells
[4] = selectivity: difference of pKi JAK3 and pKi JAK1

T1 sequence (P23458 whole entry): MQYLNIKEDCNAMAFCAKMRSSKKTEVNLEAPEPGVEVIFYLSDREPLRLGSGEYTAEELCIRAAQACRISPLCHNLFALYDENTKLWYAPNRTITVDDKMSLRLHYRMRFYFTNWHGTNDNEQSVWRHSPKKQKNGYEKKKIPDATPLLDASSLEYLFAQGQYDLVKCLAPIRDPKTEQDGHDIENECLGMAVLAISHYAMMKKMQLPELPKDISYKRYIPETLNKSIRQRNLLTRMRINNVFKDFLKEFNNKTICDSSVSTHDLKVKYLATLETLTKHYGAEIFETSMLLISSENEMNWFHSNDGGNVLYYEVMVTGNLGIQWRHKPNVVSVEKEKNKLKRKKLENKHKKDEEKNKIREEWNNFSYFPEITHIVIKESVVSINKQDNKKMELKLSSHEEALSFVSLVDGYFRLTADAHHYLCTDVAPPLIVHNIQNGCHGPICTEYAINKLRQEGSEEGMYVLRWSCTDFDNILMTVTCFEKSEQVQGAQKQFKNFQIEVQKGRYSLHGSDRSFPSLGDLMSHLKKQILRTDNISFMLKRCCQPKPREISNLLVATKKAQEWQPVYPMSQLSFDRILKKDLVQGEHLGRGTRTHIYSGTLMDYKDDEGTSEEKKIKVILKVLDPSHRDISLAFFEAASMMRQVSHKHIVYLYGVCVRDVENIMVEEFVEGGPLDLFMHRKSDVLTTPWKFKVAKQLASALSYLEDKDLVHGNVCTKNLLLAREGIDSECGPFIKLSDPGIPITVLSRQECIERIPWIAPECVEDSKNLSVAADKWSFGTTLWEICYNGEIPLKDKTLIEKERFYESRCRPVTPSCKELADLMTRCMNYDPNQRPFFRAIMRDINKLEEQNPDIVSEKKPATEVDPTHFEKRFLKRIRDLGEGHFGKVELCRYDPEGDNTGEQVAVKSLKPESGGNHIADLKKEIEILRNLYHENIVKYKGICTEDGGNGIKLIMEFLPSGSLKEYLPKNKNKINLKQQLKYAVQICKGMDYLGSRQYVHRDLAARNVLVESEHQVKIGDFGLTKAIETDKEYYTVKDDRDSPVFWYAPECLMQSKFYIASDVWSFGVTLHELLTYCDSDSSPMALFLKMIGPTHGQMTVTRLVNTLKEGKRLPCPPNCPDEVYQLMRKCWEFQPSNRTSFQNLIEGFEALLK

Structure (SMILES)	JAK 1 (pKi) (JAK1)	JAK 2 (pKi) (JAK2)	Tyk 2 (pKi) (Tyk2)	Tall-1 (pIC50) [1, 3]	combined stool score endpoint as compared with vehicle treated animals ([2]; 3 mg/kg (PO, BID))	JAK 3 (pKi) (JAK3)	JAK3 (pKi)-JAK1 (pKi) (JAK3; [4])	Ki (JAK1)	Ki (JAK2)	Ki (Tyk2)	IC50 [1]	Ki (JAK3)	combined stool score endpoint as compared with vehicle treated animals ([2]; 1 and 10 mg/kg only (PO, BID))	Tall-1 (pIC50) ([1]; IL-2 stimulated pSTAT5, Tall-1 T cells)	JAK3 (pKi)-JAK1 (pKi) (JAK3; selectivity JAK3 over JAK1, difference of pKi)
CN(C)C/C=C/C(=O)N1CC(C)(COc2cc(-c3ccc(O)c(F)c3)cc3[nH]ncc23)C1 [Compound 3-11]	E (a pKi value of 7 or below (Ki of 100 nM or above))	D (a pKi value between 7 and 8 (Ki between 100 nM and 10 nM))	E (a pKi value of 7 or below (Ki of 100 nM or above))	B (a pIC50 value between 6.7 (included) and 7.5 (IC50 between 200 nM and 32 nM))	statistically significant decrease	A (a pKi value≥10 (Ki≤0.1 nM))	A (a value of 3 or above)								
CN(C)C/C=C/C(=O)N1CC(COc2nc(-c3ccc(O)c(Cl)c3)cc3[nH]ncc23)C1 [Compound 3-34]	E (a pKi value of 7 or below (Ki of 100 nM or above))	E (a pKi value of 7 or below (Ki of 100 nM or above))	E (a pKi value of 7 or below (Ki of 100 nM or above))	B (a pIC50 value between 6.7 (included) and 7.5 (IC50 between 200 nM and 32 nM))	statistically significant decrease	A (a pKi value≥10 (Ki≤0.1 nM))	A (a value of 3 or above)								
CN(C)C/C=C/C(=O)N1CC(C)(COc2nc(-c3ccc(O)cc3)cc3[nH]ncc23)C1 [Compound 3-55]	E (a pKi value of 7 or below (Ki of 100 nM or above))	E (a pKi value of 7 or below (Ki of 100 nM or above))	E (a pKi value of 7 or below (Ki of 100 nM or above))	B (a pIC50 value between 6.7 (included) and 7.5 (IC50 between 200 nM and 32 nM))	statistically significant decrease	A (a pKi value≥10 (Ki≤0.1 nM))	A (a value of 3 or above)								
C=CC(=O)N1CC(C)(COc2nc(-c3ccc(O)cc3)nc3[nH]ncc23)C1 [Compound 3-57]	E (a pKi value of 7 or below (Ki of 100 nM or above))	E (a pKi value of 7 or below (Ki of 100 nM or above))	E (a pKi value of 7 or below (Ki of 100 nM or above))	B (a pIC50 value between 6.7 (included) and 7.5 (IC50 between 200 nM and 32 nM))	statistically significant decrease	A (a pKi value≥10 (Ki≤0.1 nM))	A (a value of 3 or above)								
COC1(COc2cc(-c3ccc(O)c(Cl)c3)cc3[nH]ncc23)CN(C(=O)/C=C/CN(C)C)C1 [Compound 3-72]					statistically significant decrease		A (a value of 3 or above)	> 0.1 µM	> 0.1 µM	> 0.1 µM	< 0.0316 µM	0.0001 to 0.001 µM			
COC1(COc2cc(-c3ccc(O)c(F)c3)cc3[nH]ncc23)CN(C(=O)/C=C/CN(C)C)C1 [Compound 3-74]							A (a value of 3 or above)	> 0.1 µM	> 0.1 µM	> 0.1 µM	< 0.0316 µM	< 0.0001 µM	statistically significant decrease		
C=CC(=O)N1CC(C(C)(C)Oc2cc(-c3ccc(O)c(Cl)c3)nc3[nH]ncc23)C1 [Compound 3-80]	E (a pKi value of 7 or below (Ki of 100 nM or above))	E (a pKi value of 7 or below (Ki of 100 nM or above))	E (a pKi value of 7 or below (Ki of 100 nM or above))	B (a pIC50 value between 6.7 (included) and 7.5 (IC50 between 200 nM and 32 nM))	statistically significant decrease	A (a pKi value≥10 (Ki≤0.1 nM))	A (a value of 3 or above)								
C=CC(=O)N1CC(C(C)(C)Oc2cc(-c3ccc(O)c(F)c3)nc3[nH]ncc23)C1 [Compound 3-81]	E (a pKi value of 7 or below (Ki of 100 nM or above))	E (a pKi value of 7 or below (Ki of 100 nM or above))	E (a pKi value of 7 or below (Ki of 100 nM or above))	A (a pIC50 value≥7.5 (IC50≤32 nM))	statistically significant decrease	A (a pKi value≥10 (Ki≤0.1 nM))	A (a value of 3 or above)								
CC(C)N(C)C/C=C/C(=O)N1CC(COc2cc(-c3ccc(O)cc3)cc3[nH]ncc23)C1 [Compound 3-113]							A (a value of 3 or above)	> 0.1 µM	0.01 to 0.1 µM	> 0.1 µM	< 0.0316 µM	< 0.0001 µM	statistically significant decrease		
CN(C)C/C=C/C(=O)N1CC(Oc2cc(-c3ccc(O)cc3)cc3[nH]ncc23)(C(F)F)C1 [Compound 5-10]	E (a pKi value of 7 or below (Ki of 100 nM or above))			B (a pIC50 value between 6.7 (included) and 7.5 (IC50 between 200 nM and 32 nM))	statistically significant decrease	B (a pKi value between 9 and 10 (Ki between 1 nM and 0.1 nM))	A (a value of 3 or above)								
C=CC(=O)N1CC2(CC(Oc3cc(-c4ccc(O)c(Cl)c4)cc4[nH]ncc34)C2)C1 [Compound 15-1]	E (a pKi value of 7 or below (Ki of 100 nM or above))	E (a pKi value of 7 or below (Ki of 100 nM or above))	E (a pKi value of 7 or below (Ki of 100 nM or above))		statistically significant decrease	B (a pKi value between 9 and 10 (Ki between 1 nM and 0.1 nM))								A (a pIC50 value≥7.5 (IC50≤32 nM))	A (a value of 3 or above)
